Test results published in article PMC7216235, “The Ionophoric Activity of a Pro-Apoptotic VEGF165 Fragment on HUVEC Cells” (International Journal of Molecular Sciences, 2020).

What was measured:
[1] = RP-HPLC retention time on PepMap C18 column (UHPLC-ESI MS) as a measure of peptide hydrophobicity; assay type: physicochemical; conditions: used by the paper as measure of relative hydrophobicity, amidated-acetylated peptides, PepMap C18 column 300Å (75 μm × 150 mm), linear gradient 2% to 99% B (20% water–80% acetonitrile) with 0.1% FA over 40 min, 0.3 µL/min, 40 °C
Protocol: Here, we tested peptide lipophilic features by high-performance liquid chromatography using a reverse phase RP18 column.
To evaluate the relative hydrophobicity of the peptides, the retention times of amidated-acetylated peptides were recorded on a PepMap C18 column 300Å (75 μm × 150 mm) using a linear gradient from 2% to 99% of B (20% water–80% acetonitrile) containing 0.1% FA over 40 min, at a flow rate of 0.3 µL/min. The injection volume was 5 μL for analysis. The Q-exactive mass spectrometer was equipped with nano electrospray ion source (Nano EASY-Spray). The thermostatted column compartment was at 40 °C. The optimized parameters of mass spectrometry were illustrated as below: spray voltage, + 3.0 kV; capillary temperature, 250 °C; full MS; resolution, 70,000; automatic gain control (AGC) target, 3.0 × 10^6; maximum injection time (IT), 200 ms; scan range, 150–2000m/z. Nitrogen was used for spray stabilization. All data collected in profile mode were acquired and processed using Thermo Xcalibur 3.0 software.

HUVEC cells [2] = assay: Cell viability assay (MTS); assay type: cell-based, human; conditions: for reduction of cell viability at the higher dose tested: time at which it starts (in words): 50 µM peptide, 24 h and 48 h
Protocol: HUVECs were maintained in EGM®-2 BulletKit® medium. Cells were grown to 80% confluence at 37 °C in a humid atmosphere in the presence of 5% CO2. Passages 2–5 were used. Cells were starved for 12 h, using endothelial cell basal medium (EBM®-2 basal medium, 0,2% Fetal Bovine Serum) before all experiments.
The MTS assay (CellTiter 96® AQueous One Solution, Promega) was performed to compare the viability of cells treated with different concentrations of peptides (VEGF73-101, VEGF84-101 VEGFQ79G, and VEGFI83G) and CuSO4, and their complexes. We considered two different growth conditions for our treatments to be examined, to which we refer in this paper as proliferation conditions or survival conditions. Proliferation condition: Cells (3 replicates) were seeded in 96-well plates at a density of 1.5 × 10^3 cell/well, treated in EGM®-2 BulletKit®, 2% Fetal Bovine Serum (FBS) without VEGF supplementation. Survival condition: Cells (3 replicates) were seeded in 96-well plates at a density of 3 × 10^3 cell/well in an EBM®-2 basal medium of 0.2% FBS without supplements and VEGF. MTS assay was used following 24 h or 48 h of treatments according to the manufacturer’s instructions. The required copper and peptides were pre-mixed together in water in order to allow peptide/copper complexes formations before their addition to the cells. When the experiments were performed in the presence of bathocuproine disulfonic acid disodium salt (BCS), in proliferation condition, 50 µM of the copper chelator was added during the treatment for 24 h. The results were reported as the percentage of viable cells, with respect to the control set, to 100%.

HUVEC cells [3] = assay: Annexin V-FITC/PI staining, flow cytometry; assay type: cell-based, human; conditions: 72 h; for induction of apoptosis (in words): 5 µM peptide, EBM-2 0.2% FBS, PI/Annexin V, two experiments in triplicate
Protocol: Annexin V/ PI is a commonly used approach for studying apoptotic cells. Propidium iodide (PI) is widely used in conjunction with Annexin V to determine if cells are viable, apoptotic, or necrotic through differences in plasma membrane integrity and permeability. The fluorescence of AnnexinV-FITC/PI assay was read using flow cytometry. HUVEC cells were seeded on a 12-well plate at a density of 2.5 ×10^4 and grown for 48 h before treatments. During the last 24 h cells were starved in the same EBM-2 basal medium containing 0.2% fetal bovine serum without EC (endothelial cell) supplements. Cells were then exposed to 5 µM peptide for 72 h. When required, 10 µM CuSO4 was used in combination with peptides. Five hours of incubation in the presence of 1 µM STS (staurosporine) was used as a positive control for cell death. Cells were harvested and stained with Annexin V-FITC (Fluorescein isothiocyanate) and propidium iodide using an annexin V-FITC apoptosis detection kit (Life technologies, Monza (MB), Italy), following the manufacturer’s instructions. Briefly, cells were pelleted and resuspended in 800 µL PBS buffer containing 20 µL of annexin V, 20 µL of propidium iodide, and PI (Annexin V/Dead Cell Apoptosis Kit (Invitrogen), and kept for 10 min at 25 °C in the dark. Samples were analyzed within 1 h by flow cytometry using a CyFlow® ML (Sysmex Partec Milan-Italy). The fluorescent scatter plots indicated three types of cell populations: viable (Annexin V-FITC−/PI−), dead (Annexin V-FITC + /PI+), and apoptotic (Annexin V-FITC + /PI−). Quadrant analysis (FlowMax software -Partec) was performed on the gated fluorescent scatter plot to examine the percentage of live, dead, and apoptotic cell populations. Experiments were repeated twice in triplicate.
Sample were analyzed, 2 × 10^4 cells per sample, using a CyFlow® ML flow cytometer (Partec) system equipped with three laser sources and 10 optical parameters with dedicated filter setting and a high numerical aperture microscope objective (50× NA 0.82) for the detection of different scatter and fluorescence signals. […]

[4] = Model membrane permeabilization assay: release of 6-carboxyfluorescein from dye-filled LUVs; conditions: 10 µM peptide, 200 µM LUVs 5:3:2 POPC/POPE/POPS, 10 mM phosphate buffer, 100 mM NaCl, pH 7.4, 25 °C, after 800 min, fluorescence λex 494/λem 520 nm, average of three experiments
Protocol: Figure 2 Dye release (membrane leakage) from model membranes induced by VEGF73-101, VEGF84-101, VEGFQ79G, and VEGFI83G. Kinetics of dye release from 200 µM LUVs of 5:3:2 POPC/POPE/POPS in the presence of 10 µM of each peptide. All experiments were performed in 10 mM phosphate buffer, 100 mM NaCl, pH 7.4, at 25 °C. Results are the average of three experiments.
Figure 7 Peptide induced release of 6-carboxyfluorescein from 200 μM POPC:POPE:POPS LUVs measured in the presence of (a) 10 μM peptides/Cu and (b) 10 μM VEGF73-101 (magenta curve) and its 1:1 Cu(II) complex (black curve), 10 μM VEGFI83G (green curve) and its 1:1 Cu(II) complex (blue curve). Experiments were in triplicate at 25 °C in 10 mM phosphate buffer, 100 mM NaCl, pH 7.4.
Model membranes were prepared according to a procedure described elsewhere. To mimic the lipid composition of endothelial cell membranes, we used POPC:POPE:POPS (5:3:2 molar ratio) lipid mixture. Multilamellar vesicles (MLVs) were obtained by vortexing a chloroform lipid solution under a gentle nitrogen flow. Next, the lipid solution was dried overnight in a vacuum at room temperature in a round-bottomed flask to remove all the residual solvent. […] Pore formation in the lipid bilayer was monitored by measuring the increase in fluorescence emission intensity due to dye dilution (dequenching) in the buffer upon membrane leakage. […]

[5] = survival conditions (EBM2, 0.2% FBS without growth factors), MTS

Compound	RP-HPLC retention time tR [1] [min]	reduction of cell viability at the higher dose tested: time at which it starts (in words) (HUVEC cells [2]; [5])	induction of apoptosis (in words) (HUVEC cells [3])	cell viability (in words) (HUVEC cells [2]; 5 µM peptide, 48 h, survival conditions (EBM2, 0.2% FBS without growth factors), MTS)	effect of the copper chelator BCS on the peptide's effect on cell viability (in words) (HUVEC cells [2]; BCS 50 µM, 24 h, proliferation conditions, no added copper, MTS (Figure S10))	dye release (membrane leakage) [4] [%]	live cells in the presence of Cu(II) (in words) (HUVEC cells [3]; peptide 5 µM with copper(II) 10 µM, PI/Annexin V (Figure 10))	cell viability of Cu(II) alone (in words) (HUVEC cells [2]; 24 h, same concentrations as in the complexes, survival and proliferation conditions, MTS (Figure 9))
Ac-ESTNIMQIMRGKPHQGQHIGEMSFLQHNK-NH2 [VEGFI83G, VEGF73-101 with point mutation in position 83 (Ile-Gly)]	20.4	starting at 24 h	–	–	–	–	–	–
Ac-KPHQGQHIGEMSFLQHNK-NH2 [VEGF84-101]	18.2	all peptides (except VEGF84-101) were able to reduce cell viability	Neither the shorter sequence (VEGF84-101), nor the single mutated peptides induced apoptosis	–	–	–	–	–
Ac-ESNITMQIMRIKPHQGQHIGEMSFLQHNK-NH2 [VEGF73-101]	21.7	starting at 24 h	able to induce apoptosis	significantly decrease cell viability	not significantly altered by BCS	~5	caused a decrease in live cells	–
Ac-ESTNIMGIMRIKPHQGQHIGEMSFLQHNK-NH2 [VEGFQ79G, VEGF73-101 with point mutation in position 79 (Gln-Gly)]	21.4	starting at 48 h	–	–	–	–	–	–
O=S(=O)([O-])[O-].[Cu+2] [Cu(II), copper sulfate, reference compound]	–	–	–	–	–	–	–	had no effects
